Reference: US10597388B2, “Pyridazinone herbicides” (FMC CORPORATION, priority 2014, dated 2020)

Key:
Format in all cases: in vivo
[1] = test system: morningglory (Ipomoea coccinea); test: Test C greenhouse herbicide test, pre- and postemergence
Method in brief: (§1)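 Pre- and postemergence greenhouse screen; values are visual control ratings, 0 meaning no effect and 100 complete kill, assigned relative to untreated plants after 13 to 15 d.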

[2] = test system: ragweed (common ragweed, Ambrosia elatior); test: as above
Method in brief: as §1

corn (Zea mays) = test: as above
Method in brief: as §1

[3] = test system: crabgrass, large (large crabgrass, Digitaria sanguinalis); test: as above
Method in brief: as §1

soybean (Glycine max) = test: as above
Method in brief: as §1

[4] = test system: blackgrass (Alopecurus myosuroides); test: as above
Method in brief: as §1

[5] = test system: pigweed (Amaranthus retroflexus); test: as above
Method in brief: as §1

[6] = test system: oilseed rape (Brassica napus); test: as above
Method in brief: as §1

[7] = test system: galium (catchweed bedstraw, Galium aparine); test: as above
Method in brief: as §1

[8] = test system: waterhemp (common waterhemp, Amaranthus rudis); test: as above
Method in brief: as §1

[9] = test system: johnsongrass (Sorghum halepense); test: as above
Method in brief: as §1

[10] = test system: barnyardgrass (Echinochloa crus-galli); test: as above
Method in brief: as §1

[11] = test system: velvetleaf (Abutilon theophrasti); test: as above
Method in brief: as §1

[12] = test system: foxtail, giant (giant foxtail, Setaria faberii); test: as above
Method in brief: as §1

[13] = test system: wheat (winter wheat, Triticum aestivum); test: as above
Method in brief: as §1

kochia (Kochia scoparia) = test: Test C greenhouse herbicide test, postemergence
Method in brief: (§2)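 Ratings are visual scores from 0 (no effect) to 100 (complete control), made against controls 13–15 d after treatment. Postemergence sprays were applied in the greenhouse to plants 2–18 cm tall (1- to 4-leaf stage) in peat-moss/vermiculite potting medium.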

[14] = test system: oat, wild (wild oat, Avena fatua); test: Test C greenhouse herbicide test, postemergence
Method in brief: as §2

[15] = Postemergence, 31 g ai/ha, scale 0 to 100 (0 no effect, 100 complete control)
[16] = Postemergence, 62 g ai/ha, 0 to 100 scale (0 no effect, 100 complete control)
[17] = Postemergence, 250 g ai/ha, scale 0 to 100, 0 no effect, 100 complete control, 13 to 15 d
[18] = Preemergence, 31 g ai/ha, scale 0 to 100, 0 is no effect, 100 is complete control
[19] = Preemergence, 62 g ai/ha, scale 0 to 100, 0 is no effect, 100 is complete control
[20] = Preemergence, 125 g ai/ha, scale 0 to 100, 0 is no effect, 100 is complete control
[21] = Preemergence, 250 g ai/ha, scale 0 to 100 (0 no effect, 100 complete control)
[22] = postemergence, 125 g ai/ha, scale 0 to 100, 0 no effect, 100 complete control

SMILES: CC(=O)Oc1c(C)nn(C)c(=O)c1-c1c(C)cc(C)c2ccccc12 [Compound 153]
- Plant response rating, Morningglory [1, 15]: 98
- Morningglory plant response rating [1, 16]: 100
- Plant response rating, Morningglory [1, 17]: 100
- Plant response rating, Morningglory [1, 18]: 95
- Plant response rating, Morningglory [1, 19]: 90
- Plant response rating, Morningglory [1, 20]: 98
- Morningglory plant response rating [1, 21]: 98
- Morningglory plant response rating [1, 22]: 98
- Plant response rating, Ragweed [2, 15]: 70
- Ragweed plant response rating [2, 16]: 90
- Plant response rating, Ragweed [2, 17]: 90
- Plant response rating, Ragweed [2, 18]: 95
- Plant response rating, Ragweed [2, 19]: 95
- Plant response rating, Ragweed [2, 20]: 98
- Ragweed plant response rating [2, 21]: 100
- Ragweed plant response rating [2, 22]: 95
- Plant response rating, Corn (corn (Zea mays); [15]): 20
- Corn plant response rating (corn (Zea mays); [16]): 35
- Plant response rating, Corn (corn (Zea mays); [17]): 10
- Plant response rating, Corn (corn (Zea mays); [18]): 0
- Plant response rating, Corn (corn (Zea mays); [19]): 0
- Plant response rating, Corn (corn (Zea mays); [20]): 40
- Corn plant response rating (corn (Zea mays); [21]): 65
- Corn plant response rating (corn (Zea mays); [22]): 25
- Plant response rating, Crabgrass, Large [3, 15]: 55
- Crabgrass, Large plant response rating [3, 16]: 50
- Plant response rating, Crabgrass, Large [3, 17]: 75
- Plant response rating, Crabgrass, Large [3, 18]: 80
- Plant response rating, Crabgrass, Large [3, 19]: 100
- Plant response rating, Crabgrass, Large [3, 20]: 98
- Crabgrass, Large plant response rating [3, 21]: 100
- Crabgrass, Large plant response rating [3, 22]: 50
- Plant response rating, Soybean (soybean (Glycine max); [15]): 5
- Soybean plant response rating (soybean (Glycine max); [16]): 10
- Plant response rating, Soybean (soybean (Glycine max); [17]): 5
- Plant response rating, Soybean (soybean (Glycine max); [18]): 20
- Plant response rating, Soybean (soybean (Glycine max); [19]): 10
- Plant response rating, Soybean (soybean (Glycine max); [20]): 20
- Soybean plant response rating (soybean (Glycine max); [21]): 45
- Soybean plant response rating (soybean (Glycine max); [22]): 10
- Plant response rating, Blackgrass [4, 15]: 80
- Blackgrass plant response rating [4, 16]: 85
- Plant response rating, Blackgrass [4, 17]: 90
- Plant response rating, Blackgrass [4, 18]: 90
- Plant response rating, Blackgrass [4, 19]: 90
- Plant response rating, Blackgrass [4, 20]: 95
- Blackgrass plant response rating [4, 21]: 95
- Blackgrass plant response rating [4, 22]: 90
- Plant response rating, Pigweed [5, 15]: 85
- Pigweed plant response rating [5, 16]: 75
- Plant response rating, Pigweed [5, 17]: 85
- Plant response rating, Pigweed [5, 18]: 100
- Plant response rating, Pigweed [5, 19]: 100
- Plant response rating, Pigweed [5, 20]: 100
- Pigweed plant response rating [5, 21]: 100
- Pigweed plant response rating [5, 22]: 85
- Plant response rating, Oilseed Rape [6, 15]: 90
- Oilseed Rape plant response rating [6, 16]: 90
- Plant response rating, Oilseed Rape [6, 17]: 90
- Plant response rating, Oilseed Rape [6, 18]: 95
- Plant response rating, Oilseed Rape [6, 19]: 100
- Plant response rating, Oilseed Rape [6, 20]: 98
- Oilseed Rape plant response rating [6, 21]: 100
- Oilseed Rape plant response rating [6, 22]: 90
- Plant response rating, Galium [7, 15]: 95
- Galium plant response rating [7, 16]: 95
- Plant response rating, Galium [7, 17]: 98
- Plant response rating, Galium [7, 18]: 95
- Plant response rating, Galium [7, 19]: 98
- Plant response rating, Galium [7, 20]: 100
- Galium plant response rating [7, 21]: 100
- Galium plant response rating [7, 22]: 98
- Plant response rating, Waterhemp [8, 15]: 70
- Waterhemp plant response rating [8, 16]: 65
- Plant response rating, Waterhemp [8, 17]: 90
- Plant response rating, Waterhemp [8, 18]: 80
- Plant response rating, Waterhemp [8, 19]: 95
- Plant response rating, Waterhemp [8, 20]: 95
- Waterhemp plant response rating [8, 21]: 100
- Waterhemp plant response rating [8, 22]: 90
- Plant response rating, Johnsongrass [9, 15]: 10
- Johnsongrass plant response rating [9, 16]: 5
- Plant response rating, Johnsongrass [9, 17]: 15
- Plant response rating, Johnsongrass [9, 18]: 25
- Plant response rating, Johnsongrass [9, 19]: 50
- Plant response rating, Johnsongrass [9, 20]: 65
- Johnsongrass plant response rating [9, 21]: 70
- Johnsongrass plant response rating [9, 22]: 10
- Plant response rating, Barnyardgrass [10, 15]: 40
- Barnyardgrass plant response rating [10, 16]: 60
- Plant response rating, Barnyardgrass ([10]; Postemergence, 125 g ai/ha, scale 0 to 100, 0 is no effect, 100 is complete control): 70
- Plant response rating, Barnyardgrass [10, 17]: 90
- Plant response rating, Barnyardgrass [10, 18]: 85
- Plant response rating, Barnyardgrass [10, 19]: 100
- Plant response rating, Barnyardgrass [10, 20]: 100
- Barnyardgrass plant response rating [10, 21]: 100
- Plant response rating, Velvetleaf [11, 15]: 85
- Velvetleaf plant response rating [11, 16]: 85
- Plant response rating, Velvetleaf [11, 17]: 95
- Plant response rating, Velvetleaf [11, 18]: 85
- Plant response rating, Velvetleaf [11, 19]: 90
- Plant response rating, Velvetleaf [11, 20]: 95
- Velvetleaf plant response rating [11, 21]: 90
- Velvetleaf plant response rating [11, 22]: 90
- Plant response rating, Foxtail, Giant [12, 15]: 80
- Foxtail, Giant plant response rating [12, 16]: 85
- Plant response rating, Foxtail, Giant [12, 17]: 95
- Plant response rating, Foxtail, Giant [12, 18]: 98
- Plant response rating, Foxtail, Giant [12, 19]: 100
- Plant response rating, Foxtail, Giant [12, 20]: 100
- Foxtail, Giant plant response rating [12, 21]: 100
- Foxtail, Giant plant response rating [12, 22]: 90
- Plant response rating, Wheat [13, 15]: 15
- Wheat plant response rating [13, 16]: 20
- Plant response rating, Wheat [13, 17]: 10
- Plant response rating, Wheat [13, 18]: 0
- Plant response rating, Wheat [13, 19]: 10
- Plant response rating, Wheat [13, 20]: 30
- Wheat plant response rating [13, 21]: 50
- Wheat plant response rating [13, 22]: 10
- Plant response rating, Kochia (kochia (Kochia scoparia); [15]): 40
- Kochia plant response rating (kochia (Kochia scoparia); [16]): 70
- Plant response rating, Kochia (kochia (Kochia scoparia); [17]): 85
- Kochia plant response rating (kochia (Kochia scoparia); [22]): 80
- Plant response rating, Oat, Wild [14, 15]: 90
- Oat, Wild plant response rating [14, 16]: 95
- Plant response rating, Oat, Wild [14, 17]: 95
- Oat, Wild plant response rating [14, 22]: 95
